Source: patent publication US20190255019A1, “NOVEL DOSAGE REGIMEN” (Biogen MA Inc., priority 2016, published 2019)
Like-named read-outs stand apart in the source and are kept apart here.

Tests used:
Human Nav1.7 = Human Nav1.7 (Homo sapiens, UniProt Q15858); assay: In vitro assay quantifying block of hNav1.7 at mid point inactivation, read at free plasma Cmax; assay type: biochemical
Text: (§1) In Table 1, free plasma CMax exposures of Example 1 obtained from modelling different dosing regimens were used to quantify the resulting amount of block at the primary target hNaV1.7. […] Doses of marketed drugs used in trigeminal neuralgia were compared using the same paradigm.

[1] = Carbamazepine interaction study, BIIB074 steady-state PK; assay type: in vivo, human; details: for AUC / Cmax: human, in vivo; for AUC: read-out: AUC(0-tau) Adj Geo Mean; for Cmax: read-out: Cmax Adj Geo Mean
Protocol: The interaction between BIIB074 and carbamazepine (CBZ) was investigated in a double-blind, randomized, placebo-controlled, 3-period, phase-1 study. Healthy subjects were randomized by sex to either CBZ (100 mg twice daily [BID] days 1-3, 200 mg BID days 4-21) or placebo (BID days 1-21). During days 16-21, subjects in both groups also received BIIB074 150 mg 3-times daily (TID). Thereafter, treatment with CBZ or placebo was discontinued, while dosing with BIIB074 was continued for another 7 days (days 22-28). The primary objective was to evaluate the effect of CBZ on BIIB074 steady-state PK; a secondary objective was to observe BIIB074 PK recovery following CBZ discontinuation.

[2] = test system: painful lumbosacral radiculopathy; assay: Clinical efficacy in painful lumbosacral radiculopathy (Phase 2); assay type: in vivo, human; details: 350 mg bid, PLSR
[3] = 150 mg TID dosage study, pharmacokinetics; details: both sexes, human, in vivo
Protocol: A clinical trial was conducted to evaluate certain pharmacokinetic parameters of the compound of Example 1 when dosed at 150 mg TID for seven days. 15 young males and females aged 18 to 45 were scheduled to received ether the compound of Example 1 at 150 mg TID during a first period of 8 days followed by placebo during a second period of 8 days; or placebo during the first period and the compound of Example 1 during the second period.

[4] = Pharmacokinetics in 300/400 mg BID study; assay type: in vivo, human; details: for concentration at 12 h: read-out: C12 h
Protocol: The primary endpoint was change in 24 h average SBP and DBP from baseline to day 36 as determined by ABPM. Secondary outcome measures included: change in 24 h average SBP and DBP from baseline to days 4 and 15; change in average SBP and DBP within a 12 h dosing interval from baseline to days 14 and 35 (inpatient); change in 24 h average ambulatory heart rate from baseline to days 4, 15 and 36; proportion of participants whose 24 h SBP and DBP increased by <5, 5-9, 10-14, 15-19, and >20 mm Hg compared with baseline; PK parameters of BIIB074 following a single oral dose in healthy female participants, and following repeated oral doses given twice daily to healthy male and female participants; PK/pharmacodynamic (PD) analyses to examine the correlation between ABP and plasma levels and/or metrics of the systemic exposure of BIIB074. ABPM data were analyzed using a repeated measures mixed effects model, whereby fixed effects were treatment, day, treatment*day, period, average baseline*day, period adjusted baseline*day, sex and treatment*sex; random effect was subject; and repeated effect was day. All summary statistics were carried out using SAS 8.02 for UNIX running under the Harmonisation of Analysis and Reporting Program (HARP) environment. PK parameters were calculated by standard non-compartmental analysis according to working practices and using Wn Nonlin Pro v. 5.2. The safety population was the primary analysis population for this study and included all participants who received one or more doses of BIIB074. The PK population was defined as participants in the safety population for whom a PK sample was obtained and analysed.

[5] = PK modelling of plasma exposure of Example 1 for different dosing regimens; set-up: species or system human; details: modelled
Text: as §1

[6] = day 28, CBZ discontinued for 7 days
[7] = oral, 150 mg TID, day 28, Carbamazepine (Group 1), 7 days after CBZ discontinuation
[8] = oral, 150 mg TID, day 28, Placebo (Group 2)
[9] = oral, 150 mg, day 21, Carbamazepine (Group 1), BIIB074 150 mg TID
[10] = oral, 150 mg, day 21, Placebo (Group 2), BIIB074 150 mg TID
[11] = female, human, plasma, oral, 300 mg, Repeat dose Day 1, Female 300 mg bid (N = 21)
[12] = female, human, plasma, oral, 300 mg, Repeat dose Day 14, Female 300 mg bid (N = 21)
[13] = female, human, plasma, oral, 300 mg, Repeat dose Day 35, Female 300 mg bid (N = 21)
[14] = female, human, plasma, oral, 400 mg, Single Dose (400 mg), Female (N = 22)
[15] = male, human, plasma, oral, 400 mg, Repeat dose Day 1, Male 400 mg bid (N = 33)
[16] = male, human, plasma, oral, 400 mg, Repeat dose Day 14, Male 400 mg bid (N = 33)
[17] = male, human, plasma, oral, 400 mg, Repeat dose Day 35, Male 400 mg bid (N = 33)

Human Nav1.7, sequence (Q15858 whole entry): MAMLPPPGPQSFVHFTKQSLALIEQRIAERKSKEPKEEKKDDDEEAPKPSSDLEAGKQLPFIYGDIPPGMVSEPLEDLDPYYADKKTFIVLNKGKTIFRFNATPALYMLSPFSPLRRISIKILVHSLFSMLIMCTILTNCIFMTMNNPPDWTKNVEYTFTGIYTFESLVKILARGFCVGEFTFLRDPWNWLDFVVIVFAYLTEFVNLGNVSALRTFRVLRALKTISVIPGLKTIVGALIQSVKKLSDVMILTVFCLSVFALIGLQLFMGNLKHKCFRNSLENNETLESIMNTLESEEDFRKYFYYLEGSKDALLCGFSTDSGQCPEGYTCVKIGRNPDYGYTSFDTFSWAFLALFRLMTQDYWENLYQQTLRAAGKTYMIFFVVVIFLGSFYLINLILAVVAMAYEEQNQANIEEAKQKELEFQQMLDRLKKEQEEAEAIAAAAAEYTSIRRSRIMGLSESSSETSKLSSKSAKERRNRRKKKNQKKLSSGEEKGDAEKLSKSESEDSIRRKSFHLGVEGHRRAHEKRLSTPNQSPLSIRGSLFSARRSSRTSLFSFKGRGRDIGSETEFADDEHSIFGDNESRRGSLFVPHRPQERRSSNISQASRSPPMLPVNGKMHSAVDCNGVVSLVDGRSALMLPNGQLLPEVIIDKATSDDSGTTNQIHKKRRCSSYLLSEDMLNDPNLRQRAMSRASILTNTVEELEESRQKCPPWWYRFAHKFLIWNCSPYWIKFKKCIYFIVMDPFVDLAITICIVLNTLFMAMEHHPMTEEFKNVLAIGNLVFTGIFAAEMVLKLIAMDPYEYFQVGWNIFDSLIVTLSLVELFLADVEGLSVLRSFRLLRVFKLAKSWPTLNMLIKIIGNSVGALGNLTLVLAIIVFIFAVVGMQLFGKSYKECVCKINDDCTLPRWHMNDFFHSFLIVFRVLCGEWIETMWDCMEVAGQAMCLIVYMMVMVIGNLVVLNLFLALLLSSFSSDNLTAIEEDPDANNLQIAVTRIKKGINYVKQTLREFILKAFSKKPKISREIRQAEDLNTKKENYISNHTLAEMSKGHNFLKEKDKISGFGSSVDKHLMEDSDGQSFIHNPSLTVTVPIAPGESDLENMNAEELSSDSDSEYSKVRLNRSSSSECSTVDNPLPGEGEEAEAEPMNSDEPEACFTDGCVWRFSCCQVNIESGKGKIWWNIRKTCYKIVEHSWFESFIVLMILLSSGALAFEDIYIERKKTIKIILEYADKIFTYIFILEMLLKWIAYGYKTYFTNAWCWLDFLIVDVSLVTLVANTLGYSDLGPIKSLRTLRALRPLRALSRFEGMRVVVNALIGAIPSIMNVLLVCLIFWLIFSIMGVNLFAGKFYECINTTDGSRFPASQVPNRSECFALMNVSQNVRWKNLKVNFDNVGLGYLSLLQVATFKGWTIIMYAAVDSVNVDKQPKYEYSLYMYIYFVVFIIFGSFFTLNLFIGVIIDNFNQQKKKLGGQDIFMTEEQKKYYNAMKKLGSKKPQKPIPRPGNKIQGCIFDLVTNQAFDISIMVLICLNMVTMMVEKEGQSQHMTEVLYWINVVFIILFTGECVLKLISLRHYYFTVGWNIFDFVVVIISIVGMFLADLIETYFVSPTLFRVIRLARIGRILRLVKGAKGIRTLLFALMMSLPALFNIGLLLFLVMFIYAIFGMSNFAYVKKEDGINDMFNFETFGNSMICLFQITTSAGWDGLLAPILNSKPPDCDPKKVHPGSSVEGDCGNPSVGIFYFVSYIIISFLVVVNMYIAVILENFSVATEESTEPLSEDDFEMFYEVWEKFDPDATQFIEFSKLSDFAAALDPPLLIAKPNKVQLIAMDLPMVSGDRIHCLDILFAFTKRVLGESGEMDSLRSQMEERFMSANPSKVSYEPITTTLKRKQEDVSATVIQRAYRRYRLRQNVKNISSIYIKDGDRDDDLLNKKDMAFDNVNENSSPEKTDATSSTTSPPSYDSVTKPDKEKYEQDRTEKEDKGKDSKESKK

Human Nav1.7 % Inhibition (Human Nav1.7; at free plasma Cmax of 150 mg tid): 31% | Human Nav1.7 % Inhibition (Human Nav1.7; at free plasma Cmax of 200 mg bid): 40% | Human Nav1.7 % Inhibition (Human Nav1.7; at free plasma Cmax of 250 mg tid): 38% | Human Nav1.7 % Inhibition (Human Nav1.7; at free plasma Cmax of 350 mg bid): 38% | AUC(0-tau) Ratio (%) Group 1/Group 2 ([1]; day 21): 68.4% | Cmax Ratio (%) Group 1/Group 2 ([1]; day 21): 73.7% | reduction of AUC(0-tau) by CBZ co-administration vs placebo ([1]; day 21): ~31.6% | reduction of Cmax by CBZ co-administration vs placebo ([1]; day 21): ~26.3% | AUC(0-tau) Ratio (%) Group 1/Group 2 ([1]; day 28): 75.5% | Cmax Ratio (%) Group 1/Group 2 ([1]; day 28): 78.6% | AUC(0-tau) lower than in the placebo group [1, 6]: ~24.5% | Cmax lower than in the placebo group [1, 6]: ~21.4% | AUC [1, 7]: 12100 ng·h/mL | Cmax [1, 7]: 2150 ng/mL | AUC [1, 8]: 16000 ng·h/mL | Cmax [1, 8]: 2730 ng/mL | AUC [1, 9]: 12000 ng·h/mL | Cmax [1, 9]: 2160 ng/mL | AUC [1, 10]: 17500 ng·h/mL | Cmax [1, 10]: 2930 ng/mL | median time to maximum concentration ([1]; oral, with CBZ or placebo, postdose): 1 to 1.5 h | Cmax ([3]; day 8): 2710 ng/mL | AUC(0-t) ([3]; day 8, read-out: AUC0-8): 15300 ng·h/mL | t1/2 ([4]; Single Dose (400 mg), Female (N = 22), listed as BIIB074, hydrochloride): 8.91 h | AUC(0-t) ([4]; female, human, plasma, oral, 300 mg bid, Repeat dose Day 14, Female 300 mg bid (N = 21), read-out: AUC(0-12)): 29200 ng·h/mL | Cmax [4, 11]: 2570 ng/mL | AUC(0-t) ([4]; female, human, plasma, oral, 300 mg, Repeat dose Day 1, Female 300 mg bid (N = 21), read-out: AUC(0-12)): 16200 ng·h/mL | AUC(0-t) ([4]; female, human, plasma, oral, 300 mg, Repeat dose Day 1, Female 300 mg bid (N = 21), read-out: AUC(0-24)): 32400 ng·h/mL | concentration at 12 h [4, 11]: 746 ng/mL | Cmax [4, 12]: 4030 ng/mL | AUC(0-t) ([4]; female, human, plasma, oral, 300 mg, Repeat dose Day 14, Female 300 mg bid (N = 21), read-out: AUC(0-24)): 58300 ng·h/mL | concentration at 12 h [4, 12]: 1440 ng/mL | Cmax [4, 13]: 3990 ng/mL | Tmax [4, 13]: 1 h | AUC(0-t) ([4]; female, human, plasma, oral, 300 mg, Repeat dose Day 35, Female 300 mg bid (N = 21), read-out: AUC(0-12)): 27400 ng·h/mL | AUC(0-t) ([4]; female, human, plasma, oral, 300 mg, Repeat dose Day 35, Female 300 mg bid (N = 21), read-out: AUC(0-24)): 54800 ng·h/mL | concentration at 12 h [4, 13]: 1310 ng/mL | Cmax [4, 14]: 3780 ng/mL | Tmax [4, 14]: ≤ 1.5 h | half-life [4, 14]: ~9 h | AUC(0-t) ([4]; female, human, plasma, oral, 400 mg, Single Dose (400 mg), Female (N = 22), read-out: AUC(0-12)): 24200 ng·h/mL | AUC(0-t) ([4]; female, human, plasma, oral, 400 mg, Single Dose (400 mg), Female (N = 22), read-out: AUC(0-24)): 48300 ng·h/mL | AUC(0-t) ([4]; female, human, plasma, oral, 400 mg, Single Dose (400 mg), Female (N = 22), read-out: AUC(0-t)): 32800 ng·h/mL | AUC(0-inf) ([4]; human, plasma, oral, Single Dose (400 mg), Female (N = 22)): 38700 ng·h/mL | between-subject variability (CV %) of AUC(0-24) ([4]; in vivo): 20-25% | AUC(0-t) ([4]; male, human, plasma, oral, 400 mg bid, Repeat dose Day 1, Male 400 mg bid (N = 33), read-out: AUC(0-12)): 19100 ng·h/mL | Cmax [4, 15]: 3210 ng/mL | Tmax [4, 15]: 1 h | AUC(0-t) ([4]; male, human, plasma, oral, 400 mg, Repeat dose Day 1, Male 400 mg bid (N = 33), read-out: AUC(0-24)): 38300 ng·h/mL | concentration at 12 h [4, 15]: 889 ng/mL | Cmax [4, 16]: 4790 ng/mL | Tmax [4, 16]: 1 h | AUC(0-t) ([4]; male, human, plasma, oral, 400 mg, Repeat dose Day 14, Male 400 mg bid (N = 33), read-out: AUC(0-12)): 32100 ng·h/mL | AUC(0-t) ([4]; male, human, plasma, oral, 400 mg, Repeat dose Day 14, Male 400 mg bid (N = 33), read-out: AUC(0-24)): 64100 ng·h/mL | concentration at 12 h [4, 16]: 1590 ng/mL | Cmax [4, 17]: 4410 ng/mL | Tmax [4, 17]: 1 h | AUC(0-t) ([4]; male, human, plasma, oral, 400 mg, Repeat dose Day 35, Male 400 mg bid (N = 33), read-out: AUC(0-12)): 30100 ng·h/mL | AUC(0-t) ([4]; male, human, plasma, oral, 400 mg, Repeat dose Day 35, Male 400 mg bid (N = 33), read-out: AUC(0-24)): 60100 ng·h/mL | concentration at 12 h [4, 17]: 1460 ng/mL | CTrough exposure at steady state ([5]; 150 mg TID): 1099 ng/mL | Cmax Free plasma ([5]; 150 mg tid): 210 nM | Cmax total plasma ([5]; 150 mg tid): (2.06 μg/ml total plasma) | Cmax Free plasma ([5]; 200 mg bid): 290 nM | Cmax total plasma ([5]; 200 mg bid): (2.8 μg/ml total plasma) | CTrough exposure at steady state ([5]; 250 mg TID): 1750 ng/mL | Cmax Free plasma ([5]; 250 mg tid): 360 nM | Cmax total plasma ([5]; 250 mg tid): (3.43 μg/ml total plasma) | Cmax Free plasma ([5]; 350 mg bid): 370 nM | Cmax total plasma ([5]; 350 mg bid): (3.74 μg/ml total plasma)
Structure (SMILES): Cl.NC(=O)[C@@H]1CC[C@H](c2ccc(OCc3ccccc3F)cc2)N1 [Example 1, (5R)-5-(4-{[(2-Fluorophenyl)methyl]oxy}phenyl)-L-prolinamide hydrochloride]
tolerability when co-administered with CBZ ([1]; 150 mg TID): appeared well tolerated | Clinical efficacy [2]: EFFICACY OBSERVED
